Experimental findings from patent US9062045B2, “Triazolopyridine compounds” (Novartis AG, priority 2012, dated 2015) are described below.

In assay [1] the target is human platelet PDE3 (Homo sapiens (Human), UniProt Q14432). In words: hPDE3 assay ([3H]cAMP scintillation proximity assay). In kind it is biochemical. The settings on record: human platelet PDE3. The text has this:
Here, compounds of formula I were screened for their ability to inhibit human PDE3 in the assay based on Amersham Pharmacia Biotech's Phosphodiesterase (PDE) [^3H]-adenosine 3′,5′ cyclic phosphate ([^3H]cAMP) Scintillation Proximity Assay (SPA). The assay is based on the hydrolysis of [^3H]cAMP, by human platelet PDE3, to [^3H]5′-adenoside monophosphate (5′-AMP). The [^3H]5′-AMP is specifically captured by yttrium silicate SPA beads in the presence of zinc sulphate.
• Optiplate and TopSeal-S (Can berra Packard) • Human platelet PDE3 (partially purified from human platelets)—a titration curve of human platelet PDE3 activity was performed to optimise the concentration of hPDE3 required in the assay. • Yttrium silicate SPA beads and [^3H]cAMP (Amersham) • Tris-Base, magnesium chloride, ethylenediaminetetraacetic acid (di-sodium salt), bovine serum albumin BSA and cAMP (Sigma) Solutions and Buffers: • Assay buffer: 7.56 g Tris-Base was dissolved in approximately 800 mL distilled water and the pH adjusted to 7.5 with 1 M hydrochloric acid. 10.3 mL 1 M magnesium chloride and 4.25 mL 0.5 M EDTA were added. The solution was made to 1 L with distilled water and stored at 4° C. On day of use 18 mL of the above solution was removed and 2 mL 5 mg/ml BSA were added thereto. • Enzyme buffer: 10 mM Tris-HCl at pH 7.5, 1 mM EDTA • Yttrium silicate SPA beads: 1 vial was reconstituted in 28 mL distilled water and stored at 4° C. Assay
The assay was performed in a final volume of 100 μL per well of an Optiplate (Canberra Packard). A 10 μL aliquot of the test compound dissolved in DMSO/distilled water was placed in a well of an Optiplate plate, followed by the addition of 80 μL ‘Assay mix’ (5.5 μL [^3H]cAMP and 88 μL “cold” cAMP were diluted to 8.8 mL using assay buffer). The reaction was started by adding 10 μL hPDE3 (50 μL stock hPDE3 solution was diluted 50 fold to 2.5 mL using enzyme buffer). The plate was incubated at room temperature for 30 min, the reaction was then terminated by the addition of 50 μL Yttrium silicate SPA beads (pre-warmed to room temperature) to all wells. […] The plate was sealed using TopSeal-S according to the manufacturer's instructions and counted using a Packard TopCount, each well being counted for 1 min. IC50 values were determined using non-linear regression.
On the technique in general: SPA uses beads or plates that emit light when radiolabelled molecules are held near them.

For assay [2], the system named is GTL16 cells. Briefly: GTL16 cell viability assay (CellTiter Glo). The note with it: read-out: GTL-16 Proliferation IC50; GTL16 cells, 24 hours. (In ATP-based viability assays light output follows the ATP content of the culture.)
Procedure: GTL16 Cell Viability Assay:
GTL16 expresses high level of c-Met receptor tyrosine kinase due to the gene amplification.
GTL16 cells were seeded in DMEM medium with 10% FBS and 1% Pene. & Strep. at 5000 cells/well/90 μL in 96 well plate and incubated overnight for attachment at 37° C. in 5% CO2 incubator. 10-fold serials dilutions of compounds were added to the cell as 10 μL/well. The final assay volume was 100 μl/well. The assay plates were incubated at 37° C. in 5% CO2 incubator for 24 hours. […] The chemiluminescent light unit was read in Envision from Perkin Elmer. All the tests were run at triplicates. The IC50 was calculated using Spotfire software.
Assay [3] has as its target c-Met receptor tyrosine kinase, GST-c-MET (969-1390) (Homo sapiens (Human), UniProt P08581). The note with it: read-out: c-Met Biochem IC50; 2 μM ATP, 60 minutes at room temperature.
Procedure: A number of compounds of the present invention were assayed in an antibody based kinase phosphorylation assay as follows.
The EPK kinase assay for c-Met receptor tyrosine kinase was developed, using the purified recombinant GST-fusion protein, containing the cytoplasmic domain of the enzyme.
The kinase assay is based on the LanthaScreen™ technology.
The kinase reactions were performed in 384 well microtiter plates in a total reaction volume of 10.05 μL. The assay plates were prepared with 0.05 μL per well of test compound in the appropriate test concentration, as described under “preparation of compound dilutions”. The reactions were started by combining 5 μL of ATP solution with 5 μL of enzyme-substrate mix (consisting of kinase and substrate). […] Subsequently 5 μL of detection mix (50 mM Tris/HCl, 2 mM DTT, 0.05% Tween20, 20 μM sodium orthovanadate, 1% BSA, 1 nM Tb-PY20 antibody) were added to the stopped reactions. After 45 minutes incubation in dark at room temperature, the plates were measured in a Perkinelmer Envision fluorescence reader.

c-Met receptor tyrosine kinase, GST-c-MET (969-1390), sequence (P08581 969-1390): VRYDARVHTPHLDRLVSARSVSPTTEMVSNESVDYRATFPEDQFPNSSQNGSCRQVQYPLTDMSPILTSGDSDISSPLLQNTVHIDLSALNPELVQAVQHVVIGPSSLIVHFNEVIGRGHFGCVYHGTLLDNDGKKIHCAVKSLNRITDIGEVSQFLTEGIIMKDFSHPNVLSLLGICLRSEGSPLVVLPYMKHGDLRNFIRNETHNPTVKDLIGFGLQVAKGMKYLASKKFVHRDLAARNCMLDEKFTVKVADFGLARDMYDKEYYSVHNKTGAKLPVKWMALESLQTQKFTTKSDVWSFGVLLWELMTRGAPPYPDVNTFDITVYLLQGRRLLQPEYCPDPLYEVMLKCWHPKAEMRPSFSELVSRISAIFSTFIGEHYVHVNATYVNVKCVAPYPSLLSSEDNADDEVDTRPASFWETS
human platelet PDE3, sequence (Q14432 whole entry): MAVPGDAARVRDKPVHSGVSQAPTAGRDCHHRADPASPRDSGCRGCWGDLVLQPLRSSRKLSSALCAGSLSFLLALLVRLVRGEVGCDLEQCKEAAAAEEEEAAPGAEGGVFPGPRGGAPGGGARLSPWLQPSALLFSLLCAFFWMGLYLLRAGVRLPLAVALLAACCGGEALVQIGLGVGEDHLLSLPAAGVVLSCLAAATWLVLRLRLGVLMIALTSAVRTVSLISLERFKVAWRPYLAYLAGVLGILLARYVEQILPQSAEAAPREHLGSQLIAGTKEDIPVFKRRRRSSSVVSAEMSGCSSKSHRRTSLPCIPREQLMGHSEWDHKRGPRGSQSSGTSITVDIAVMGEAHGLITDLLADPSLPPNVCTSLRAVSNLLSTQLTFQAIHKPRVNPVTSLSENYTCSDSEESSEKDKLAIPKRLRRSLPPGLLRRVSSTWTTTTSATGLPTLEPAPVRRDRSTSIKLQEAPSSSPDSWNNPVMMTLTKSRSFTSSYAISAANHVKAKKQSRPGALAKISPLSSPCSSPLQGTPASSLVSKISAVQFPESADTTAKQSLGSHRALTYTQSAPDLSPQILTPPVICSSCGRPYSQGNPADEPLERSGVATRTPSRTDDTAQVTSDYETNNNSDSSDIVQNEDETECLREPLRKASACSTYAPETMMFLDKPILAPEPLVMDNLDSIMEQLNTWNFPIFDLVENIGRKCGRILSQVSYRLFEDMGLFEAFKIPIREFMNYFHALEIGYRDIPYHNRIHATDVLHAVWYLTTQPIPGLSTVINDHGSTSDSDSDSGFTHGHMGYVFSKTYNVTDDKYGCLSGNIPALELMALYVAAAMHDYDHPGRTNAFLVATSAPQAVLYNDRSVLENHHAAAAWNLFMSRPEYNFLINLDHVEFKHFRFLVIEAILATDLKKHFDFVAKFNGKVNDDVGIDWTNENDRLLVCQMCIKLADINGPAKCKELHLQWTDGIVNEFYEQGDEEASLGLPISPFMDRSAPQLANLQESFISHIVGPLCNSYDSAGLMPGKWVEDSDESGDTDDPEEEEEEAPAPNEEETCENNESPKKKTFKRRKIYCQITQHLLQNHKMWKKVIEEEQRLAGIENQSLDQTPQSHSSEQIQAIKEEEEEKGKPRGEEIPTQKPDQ

Consider `Cn1cc(-c2ccc3nnc(Sc4ccc5ncc(NC6CCN(C(=O)OC(C)(C)C)CC6)cc5c4)n3c2)cn1` [Example 22, tert-Butyl 4-(6-(6-(1-methyl-1H-pyrazol-4-yl)-[1,2,4]triazolo[4,3-a]pyridin-3-ylthio)quinolin-3-ylamino)piperidine-1-carboxylate], for which the figures for the IC50 in assay [1], in assay [2] and in assay [3] were 15 µM, 0.002 µM and 0.019 µM, respectively.

Take `Cn1cc(-c2ccc3nnc(Sc4ccc5ncc(N6CCC(N7CCCCC7)CC6)cc5c4)n3c2)cn1` [Example 30, 3-(1,4′-Bipiperidin-1′-yl)-6-(6-(1-methyl-1H-pyrazol-4-yl)-[1,2,4]triazolo[4,3-a]pyridin-3-ylthio)quinoline]: the IC50 was found to be 25 µM in assay [1], […] in assay [2] and […] in assay [3].

Regarding `Cn1cc(-c2cc(F)c3nnc(Sc4ccc5ncc(N6CCC(N7CCCCC7)CC6)cc5c4)n3c2)cn1` [Example 31, 3-(1,4′-Bipiperidin-1′-yl)-6-(8-fluoro-6-(1-methyl-1H-pyrazol-4-yl)-[1,2,4]triazolo[4,3-a]pyridin-3-ylthio)quinoline], the IC50 in assay [1] worked out at 30 µM; in assay [2], 0.0004 µM; in assay [3], 0.003 µM.

Regarding `Cn1cc(-c2ccc3nnc(Sc4ccc5ncc(N6CCN(C7CCCCC7)CC6)cc5c4)n3c2)cn1` [Example 32, 3-(4-Cyclohexylpiperazin-1-yl)-6-(6-(1-methyl-1H-pyrazol-4-yl)-[1,2,4]triazolo[4,3-a]pyridin-3-ylthio)quinoline], the IC50 amounted to 26 µM in assay [1], 0.004 µM in assay [2] and […] in assay [3].

Regarding `Cn1cc(-c2ccc3nnc(Sc4ccc5ncc(N6CCN(c7ccccc7)CC6)cc5c4)n3c2)cn1` [Example 34, 6-(6-(1-Methyl-1H-pyrazol-4-yl)-[1,2,4]triazolo[4,3-a]pyridin-3-ylthio)-3-(4-phenylpiperazin-1-yl)quinoline], the IC50 in assay [1] came out at 30 µM; in assay [2], 0.001 µM; in assay [3] it was 0.045 µM.

As to `CC1CN(c2cnc3ccc(Sc4nnc5ccc(-c6cnn(C)c6)cn45)cc3c2)CCO1` (centres unmarked) [Example 35, 2-Methyl-4-(6-(6-(1-methyl-1H-pyrazol-4-yl)-[1,2,4]triazolo[4,3-a]pyridin-3-ylthio)quinolin-3-yl)morpholine], the IC50 turned out to be 0.0004 µM in assay [2] and 0.004 µM in assay [3].

`C[C@H]1CN(c2cnc3ccc(Sc4nnc5ccc(-c6cnn(C)c6)cn45)cc3c2)CCO1` [Example 35A, (S)-2-Methyl-4-(6-(6-(1-methyl-1H-pyrazol-4-yl)-[1,2,4]triazolo[4,3-a]pyridin-3-ylthio)quinolin-3-yl)morpholine]: the IC50 in assay [1] was 16 µM; in assay [2], 0.001 µM; in assay [3], 0.005 µM.

For the molecule `C[C@@H]1CN(c2cnc3ccc(Sc4nnc5ccc(-c6cnn(C)c6)cn45)cc3c2)CCO1` [Example 35B, (R)-2-Methyl-4-(6-(6-(1-methyl-1H-pyrazol-4-yl)-[1,2,4]triazolo[4,3-a]pyridin-3-ylthio)quinolin-3-yl)morpholine], the IC50 in assay [2] and in assay [3] was 0.004 µM in each case.

In the case of `C[C@H]1CNCCN1c1cnc2ccc(Sc3nnc4c(F)cc(-c5cnn(C)c5)cn34)cc2c1` [Example 46, (S)-6-(8-Fluoro-6-(1-methyl-1H-pyrazol-4-yl)-[1,2,4]triazolo[4,3-a]pyridin-3-ylthio)-3-(2-methylpiperazin-1-yl)quinoline], the IC50 in assay [1] turned out to be 30 µM; in assay [3] it was […].

Take `Cn1cc(-c2ccc3nnc(Sc4ccc5ncc(NCCO)cc5c4)n3c2)cn1` [Example 53, 2-(6-(6-(1-methyl-1H-pyrazol-4-yl)-[1,2,4]triazolo[4,3-a]pyridin-3-ylthio)quinolin-3-ylamino)ethanol]: the IC50 in assay [1] stood at 14 µM; in assay [2], 0.017 µM.

On to `Cn1cc(-c2ccc3nnc(Sc4ccc5ncc(N6CCC(F)(F)CC6)cc5c4)n3c2)cn1` [Example 61, 3-(4,4-Difluoro-piperidin-1-yl)-6-[6-(1-methyl-1H-pyrazol-4-yl)-[1,2,4]triazolo[4,3-a]pyridin-3-ylsulfanyl]-quinoline], for which the IC50 in assay [1] amounted to 12 µM; in assay [2] it was 0.002 µM.

`Cn1cc(-c2ccc3nnc(Sc4ccc5ncc(NC6CC(C)(C)NC(C)(C)C6)cc5c4)n3c2)cn1` [Example 62, 6-(6-(1-Methyl-1H-pyrazol-4-yl)-[1,2,4]triazolo[4,3-a]pyridin-3-ylthio)-N-(2,2,6,6-tetramethylpiperidin-4-yl)quinolin-3-amine]: the figures for the IC50 in assay [1] and in assay [2] were 18 µM and 0.073 µM, respectively.

As to `Cn1cc(-c2ccc3nnc(Sc4ccc5ncc(NC6CCOCC6)cc5c4)n3c2)cn1` [Example 68, {6-[6-(1-Methyl-1H-pyrazol-4-yl)-[1,2,4]triazolo[4,3-a]pyridin-3-ylsulfanyl]-quinolin-3-yl}-(tetrahydro-pyran-4-yl)-amine], the IC50 in assay [1] is 10 µM; in assay [2] it was 0.003 µM.

With `C/C(=N\OCCO)c1ccc2nnc(Sc3ccc4ncc(N5CCC(O)CC5)cc4c3)n2c1` [Example 76, (E)-1-(3-((3-(4-Hydroxypiperidin-1-yl)quinolin-6-yl)thio)-[1,2,4]triazolo[4,3-a]pyridin-6-yl)-ethanone O-(2-hydroxyethyl)oxime], the IC50 was 14 µM in assay [1] and 0.054 µM in assay [2].

For `C/C(=N\O)c1ccc2nnc(Sc3ccc4ncc(N5CCOCC5)cc4c3)n2c1` [Example 77, (E)-1-(3-((3-Morpholin-4-yl-quinolin-6-yl)thio)-[1,2,4]triazolo[4,3-a]pyridin-6-yl)ethanone oxime], the IC50 in assay [1] amounted to 12 µM; in assay [2], 0.008 µM.

For `C/C(=N\OCCO)c1ccc2nnc(Sc3ccc4ncc(NC5CCOCC5)cc4c3)n2c1` [Example 83, (E)-1-(3-(3-(Tetrahydro-2H-pyran-4-ylamino)quinolin-6-ylthio)-[1,2,4]triazolo[4,3-a]pyridin-6-yl)ethanone O-2-hydroxyethyl oxime], the IC50 in assay [1] is 20 µM; in assay [2] it was 0.001 µM.

`C/C(=N\O)c1ccc2nnc(Sc3ccc4ncc(NC5CCOCC5)cc4c3)n2c1` [Example 84, (E)-1-(3-(3-(Tetrahydro-2H-pyran-4-ylamino)quinolin-6-ylthio)-[1,2,4]triazolo[4,3-a]pyridin-6-yl)ethanone oxime]: the IC50 in assay [1] is 6 µM; in assay [2], 0.003 µM.

Take `C/C(=N\OCCO)c1cc(F)c2nnc(Sc3ccc4ncc(N5CC[C@H](N(C)C)C5)cc4c3)n2c1` [Example 85, (S,E)-1-{3-[3-(3-dimethylamino-pyrrolidin-1-yl)-quinolin-6-ylthio]-8-fluoro-[1,2,4]triazolo[4,3-a]pyridin-6-yl}ethanone O-(2-hydroxy-ethyl)-oxime]: the IC50 in assay [1] is 30 µM; in assay [2], 0.023 µM.

In the case of `C/C(=N\OCCO)c1ccc2nnc(Sc3ccc4ncc(N5CCN(C)CC5)cc4c3)n2c1` [Example 86, (E)-1-(3-(3-(4-methylpiperazin-1-yl)quinolin-6-ylthio)-[1,2,4]triazolo[4,3-a]pyridin-6-yl)ethanone O-2-hydroxyethyl oxime], the IC50 in assay [1] is 27 µM; in assay [2], 0.051 µM.
